This data set in a line: Human HepG2 cell viability assay in 384 well format. Format: toxicity, cell-based. Particulars: HepG2 cells, read-out: Inhibition. Also on record: dose 125 nL, time 70.5 hour; concentration not given beside the values.

For `Clc1ccccc1CN1CCCC(c2nnc(-c3cnccn3)o2)C1` (stereo not drawn), the cytotoxicity at 70.5 h was -5.49%.
Take `Cn1nccc1C(=O)N1C[C@@H]2CC[C@H](Oc3cccc(F)c3)[C@@H]2C1`: the cytotoxicity at 70.5 h was -3.82%.
Under `NCc1cnn(-c2ccccc2C(=O)NCc2ccccn2)c1` stands -5.83%; under `Cc1noc(CNC(=O)c2ccccc2-n2cc(CN)cn2)n1`, -5.09%; under `CN(CC1(O)CCCN(c2ccccn2)C1)C(=O)CC1CCOCC1` (stereo not drawn), -9.69%.
Turning to `Cn1cc(CN2CC[C@H](O)[C@@H](n3ccc(=O)[nH]c3=O)CC2)cn1`, the cytotoxicity at 70.5 h was 12.4%.
With `Cc1noc(C)c1-c1cncc(C2CCCN2Cc2cc[nH]n2)n1` (stereo not drawn) the figure was -3.25%.
Under `CN(C)CC(=O)N1CCCCC1c1nc(N)ncc1-c1ccccc1` (stereo not drawn) stands 5.62%; under `CC(=O)N1CCCC(Cc2cnc(C(=O)N3CCC(C)CC3)cn2)C1` (stereo not drawn), -5.67%.
Under `CCn1ccc(C(=O)N2CCCC2(C)c2nc(C)cc(N(C)C)n2)n1` (stereo not drawn) stands -7.92%.
As for `CN1CCCC(Cc2cncc(C(=O)N3CCOCC3)c2)C1` (stereo not drawn), the cytotoxicity at 70.5 h worked out at 12.9%.
Under `Cc1ccc(S(=O)(=O)N2CCC(c3n[nH]cc3C)C2)cc1` (stereo not drawn) stands -1.04%.
As for `COc1ccc(CN2CCC(c3nccnc3-n3ccnc3)CC2)cc1`, the cytotoxicity at 70.5 h is -5.25%.
Under `OCCN1CCCC(c2nccnc2Oc2ccccc2)C1` (stereo not drawn) stands -6.87%; under `CN(C)C(=O)CN1CCCC1c1nc(N)ncc1-c1ccc(F)cc1` (stereo not drawn), 2.44%; under `CC(C)CC(NC(=O)CSCC(N)=O)c1cccs1` (stereo not drawn), -5.44%.
Turning to `COc1ccccc1CC1CCCN1C(=O)c1cn[nH]c1C` (stereo not drawn), the cytotoxicity at 70.5 h was -4.05%.
For `CN(C(=O)OC(C)(C)C)C1CCN(C(=O)c2cc(Cl)c[nH]2)C1` (stereo not drawn), the cytotoxicity at 70.5 h was found to be 13%.
Under `O=C(c1cnc(-c2ccccc2)nc1)N1CCOC2(CCCC2)C1` stands -8.9%.
With `CNC(=O)CN(C)S(=O)(=O)c1c(Br)cc2[nH]c(=O)oc2c1Cl` the figure was -3.9%.
Under `Cc1nn(C)c2ncc(NC(=O)N(C)Cc3cc(Cl)cn3C)cc12` stands -4.9%.
Consider `NC(=O)N1CCCN(CCCSCc2ccccc2)CC1`, for which the cytotoxicity at 70.5 h is -17.6%.
With `FC(F)Oc1ccc(CNCc2cc(Br)c3c(c2)OCO3)cc1` the figure was -6.89%.
Under `CCN(CC1CCOC1)S(=O)(=O)Cc1cc(Cl)ccc1OC` (stereo not drawn) stands -14.8%; under `CC(=O)N1CCCN(CCCc2ccccc2)CC1`, -6.32%.
Under `CC(C)c1nnc2n1CCN(Cc1ccc3c(c1)OCCO3)C2` stands 0.93%.
For `CCC(C)NC(=O)c1sccc1-n1cnnn1` (stereo not drawn), the cytotoxicity at 70.5 h worked out at 27.2%.
With `CC(C)OCCCNC(=O)CN1CCN(c2nccs2)CC1` the figure was -4.41%.
As for `Cc1cnn(C2CN(c3ccccc3S(=O)(=O)C(F)(F)F)C2)c1`, the cytotoxicity at 70.5 h was 1.3%.
As to `Cn1nc(C(=O)NCc2ccc(OC3CCCCC3)nc2)ccc1=O`, the cytotoxicity at 70.5 h was 21.9%.
With `COc1ccc2c(c1)OCC(CNC1CCc3ncnn3C1)=C2` (stereo not drawn) the figure was -0.263%.
Regarding `CC(c1ccc(F)cc1F)N1CCN(CCC(=O)NC(N)=O)CC1` (stereo not drawn), the cytotoxicity at 70.5 h is -6.26%.
With `CC(c1ccc(F)cc1F)N1CCN(CCN2CCCC2=O)CC1` (stereo not drawn) the figure was -4.44%; with `CC(c1nc(C2CC2)no1)N1CCc2c(ncn2C2CC2)C1` (stereo not drawn), -7.1%; with `Cc1ccc(C(=O)NCc2cc(F)ccc2N2CCCN(C)CC2)o1`, 1.17%.
Under `CCc1nnc(CS(=O)(=O)c2ccc(C)c(C)c2)n1C` stands 26.2%; under `CC(OCC1CC1)C(=O)Nc1cccc(C(=O)Nc2ccccn2)c1` (stereo not drawn), -8.38%.
Under `Cc1cc(C)n(CCN2CCC(N(C)Cc3nnc(C)n3C)C2)n1` (stereo not drawn) stands -0.44%.
On to `CC1CN(CC(=O)NCc2ccc(F)cc2)CCN1c1nccs1` (stereo not drawn), for which the cytotoxicity at 70.5 h came to 0.122%.
With `CN1CCCN(c2ccc(F)cc2CNC(=O)c2ccsc2)CC1` the figure was -4.69%.
With `COc1cc(NC(=O)N(C)CCC2CC2)ncn1` the figure was 19.9%.
With `Cc1nncn1CCNC(=O)C1SCCc2sccc21` (stereo not drawn), the cytotoxicity at 70.5 h was -3.34%.
With `Cc1cnn(CCNCc2cc(=O)n3cc(Cl)ccc3n2)c1` the figure was -6.7%.
With `Cc1cnn(CC(C)NCc2cc(=O)n3ccccc3n2)c1` (stereo not drawn) the figure was -11.2%.
Take `Cc1ccc(NC(=O)c2cccc(N(C)C)c2)nc1`: the cytotoxicity at 70.5 h is -8.66%.
With `CC(C)(NCc1cccc(C(N)=O)c1)c1ccc2c(c1)OCO2` the figure was -10%.
Under `CC(C)(NCc1cccc(O)c1)c1ccc2c(c1)OCO2` stands -11.8%; under `CC(C)(NCc1cccc(C#N)c1)c1ccc2c(c1)OCO2`, -9.81%; under `NC1(c2nc(-c3cccs3)cc(=O)[nH]2)CCCCC1`, 7.44%.
Under `NC1(c2nc(-c3ccccc3)cc(=O)[nH]2)CCCC1` stands 13.8%; under `Cc1ncncc1C(=O)N1CCCN(Cc2nccn2C(C)C)CC1`, -8.96%; under `O=C(NCCO)Nc1c(F)cccc1Oc1ccccc1`, -7.66%.
Consider `CCc1ncc2c(n1)CN(CC(=O)NC1CCCCNC1=O)CC2` (stereo not drawn), for which the cytotoxicity at 70.5 h amounted to 1.9%.
For the compound `COCCN(C(=O)c1cc(C)no1)c1ccc(C#N)cc1`, the cytotoxicity at 70.5 h was -8.51%.
Under `Cn1c(C2CC2)nc2c1CCN(CC(=O)NC1CCCCNC1=O)C2` (stereo not drawn) stands -7.85%.
For the compound `CN(C)CCN(C)S(=O)(=O)Cc1ccc(Br)cc1`, the cytotoxicity at 70.5 h was 11.7%.
Under `CN1CCC(N(Cc2ccccc2)C(=O)c2ccn3cncc3c2)CC1` stands 3.64%; under `COc1ccc(C(=O)NC2COc3ccccc3C2)cc1OCC(=O)O` (stereo not drawn), -4.51%.
Under `CC(C)(C)OC(=O)N1CCCN(Cc2ccon2)c2ccccc21` stands 9.4%.
With `COCCN1CCN(CC(=O)NC2(C#N)CCCC2)CC1` the figure was -8.93%; with `CCC1CN(CC(=O)NC2(C#N)CCCC2)CCN1CCOC` (stereo not drawn), -6.19%; with `COCCN1CCN(CC(=O)NC2(C#N)CCCC2)CC1C` (stereo not drawn), 7.99%.
Turning to `CN1CCC(N(Cc2ccccc2)C(=O)c2nccn3ccnc23)CC1`, the cytotoxicity at 70.5 h was -7.08%.
With `CCN(CC)CCn1cc(NC(=O)Nc2ccccc2OC)cn1` the figure was -11.6%; with `CCc1noc(C(C)N2CCC(NS(=O)(=O)c3ccccc3)CC2)n1` (stereo not drawn), 19.7%.
Under `O=C(NCC1CCCN1Cc1ccccc1)NCC1(O)CCC1` (stereo not drawn) stands 31.1%.
Under `CC(=O)NCC1CCN(Cc2nc(C3CC3)no2)CC1` stands -6.87%; under `CC(C)Oc1ccc(CNC(=O)C2CCC(=O)N2)cn1` (stereo not drawn), 23%.
On to `CCCC(=O)NCc1ccc(N2CCCCC2)cc1`, for which the cytotoxicity at 70.5 h is -10.2%.
Under `CC(CNC(=O)c1nnn(-c2ccccc2)c1C(F)(F)F)N(C)C` (stereo not drawn) stands -8.59%; under `Clc1ccccc1CN1CCc2nc(C3CCNCC3)ncc2C1`, -6.61%.
Regarding `Cc1ccc(-c2n[nH]cc2CNCC2CCN(CC(F)(F)F)C2)o1` (stereo not drawn), the cytotoxicity at 70.5 h is -1.74%.
Turning to `Cc1ccc(CN[C@@H]2COC[C@H]2Cc2cc(C)no2)cc1`, the cytotoxicity at 70.5 h was -7.63%.

The record behind these values is ChEMBL document CHEMBL3507680, “University of Dundee, Gates Library screen for HepG2 cell viability”.
